What all share (assay): relative viability (nuclei count vs DMSO), 5 days (fraction); higher = more cells survive
Compound in the test “4EGI-1 + Palbociclib”: O=C(O)C(Cc1ccccc1[N+](=O)[O-])=NNc1nc(-c2ccc(Cl)c(Cl)c2)cs1 (mixture of isomers) [4EGI-1] + CC(=O)c1c(C)c2cnc(Nc3ccc(N4CCNCC4)cn3)nc2n(C2CCCC2)c1=O [Palbociclib] (partner 0.5 µM)
The method in brief: (§1)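 Lung cancer cell lines in 1536-well plates were dosed by pin tool the day after seeding, either with one drug alone or with a fixed anchor-drug dose plus five library-drug doses (not always all listed) in √10 steps. After 5 days, cells were fixed and their nuclei stained in one step (final 0.05% Triton X-100, 1% formaldehyde, 1 ug/ml Hoechst), then counted on 4× images. Relative viability is the nuclei count in treated wells divided by that in vehicle wells. Values are medians of duplicate plates.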

Compound in the test “4EGI-1 + Tozasertib”: O=C(O)C(Cc1ccccc1[N+](=O)[O-])=NNc1nc(-c2ccc(Cl)c(Cl)c2)cs1 (mixture of isomers) [4EGI-1] + Cc1cc(Nc2cc(N3CCN(C)CC3)nc(Sc3ccc(NC(=O)C4CC4)cc3)n2)n[nH]1 [Tozasertib] (partner 0.1 µM)
The method, boiled down:
as §1

Compound in the test “4EGI-1 + Alpelisib”: O=C(O)C(Cc1ccccc1[N+](=O)[O-])=NNc1nc(-c2ccc(Cl)c(Cl)c2)cs1 (mixture of isomers) [4EGI-1] + Cc1nc(NC(=O)N2CCC[C@H]2C(N)=O)sc1-c1ccnc(C(C)(C)C(F)(F)F)c1 [Alpelisib] (partner 2 µM)
The method in brief: as §1

Compound in the test “4EGI-1 + Phenformin”: O=C(O)C(Cc1ccccc1[N+](=O)[O-])=NNc1nc(-c2ccc(Cl)c(Cl)c2)cs1 (mixture of isomers) [4EGI-1] + N=C(N)NC(=N)NCCc1ccccc1 [Phenformin] (partner 250 µM)
The method, boiled down: as §1

In the supplement of paper PMC10307832 one finds relative viability data, which are given here for 5 cell lines.

As for COR-L23, the relative viability in the test with 4EGI-1 + Palbociclib (first compound 0.5 µM) stood at 0.382; with 4EGI-1 + Palbociclib (first compound 1.581 µM), 0.214; with 4EGI-1 + Palbociclib (first compound 5 µM) it was 0.3; with 4EGI-1 + Palbociclib (first compound 15.81 µM), 0.205; in the test with 4EGI-1 + Palbociclib (first compound 50 µM), 0.101; in the test with 4EGI-1 + Tozasertib (first compound 0.5 µM) it was 0.215. Besides, the relative viability worked out at 0.145 in the test with 4EGI-1 + Tozasertib (first compound 1.581 µM); 0.189 with 4EGI-1 + Tozasertib (first compound 5 µM); 0.157 with 4EGI-1 + Tozasertib (first compound 15.81 µM); 0.0963 with 4EGI-1 + Tozasertib (first compound 50 µM); 0.873 in the test with 4EGI-1 + Alpelisib (first compound 0.5 µM); 0.509 with 4EGI-1 + Alpelisib (first compound 1.581 µM). Further, the relative viability with 4EGI-1 + Alpelisib (first compound 5 µM) worked out at 0.885; with 4EGI-1 + Alpelisib (first compound 15.81 µM), 0.562; in the test with 4EGI-1 + Alpelisib (first compound 50 µM), 0.112; with 4EGI-1 + Phenformin (first compound 0.5 µM), 0.49; with 4EGI-1 + Phenformin (first compound 1.581 µM) it was 0.275; with 4EGI-1 + Phenformin (first compound 5 µM), 0.429. For the same cell line, the figures for the relative viability in the test with 4EGI-1 + Phenformin (first compound 15.81 µM) and with 4EGI-1 + Phenformin (first compound 50 µM) were 0.296 and 0.144, respectively.
In the case of NCI-H1915, the relative viability with 4EGI-1 + Palbociclib (first compound 0.5 µM) is 0.562; with 4EGI-1 + Palbociclib (first compound 1.581 µM), 0.369; in the test with 4EGI-1 + Palbociclib (first compound 5 µM), 0.517; with 4EGI-1 + Palbociclib (first compound 15.81 µM), 0.477; with 4EGI-1 + Palbociclib (first compound 50 µM) it was 0.404; with 4EGI-1 + Tozasertib (first compound 0.5 µM), 0.448. Moreover, the relative viability is 0.327 in the test with 4EGI-1 + Tozasertib (first compound 1.581 µM); 0.421 with 4EGI-1 + Tozasertib (first compound 5 µM); 0.326 with 4EGI-1 + Tozasertib (first compound 15.81 µM); 0.201 with 4EGI-1 + Tozasertib (first compound 50 µM); 1.09 with 4EGI-1 + Alpelisib (first compound 0.5 µM); 0.808 with 4EGI-1 + Alpelisib (first compound 1.581 µM). The relative viability in the test with 4EGI-1 + Alpelisib (first compound 5 µM) worked out at 0.982; in the test with 4EGI-1 + Alpelisib (first compound 15.81 µM) it was 1.07; with 4EGI-1 + Alpelisib (first compound 50 µM) it was 0.695; in the test with 4EGI-1 + Phenformin (first compound 0.5 µM), 0.367; in the test with 4EGI-1 + Phenformin (first compound 1.581 µM), 0.35; in the test with 4EGI-1 + Phenformin (first compound 5 µM), 0.374. In addition, the figures for the relative viability with 4EGI-1 + Phenformin (first compound 15.81 µM) and with 4EGI-1 + Phenformin (first compound 50 µM) were 0.343 and 0.233, respectively.
Regarding NCI-H2126, the relative viability with 4EGI-1 + Palbociclib (first compound 0.5 µM) was determined as 0.324; in the test with 4EGI-1 + Palbociclib (first compound 1.581 µM), 0.371; with 4EGI-1 + Palbociclib (first compound 5 µM) it was 0.326; with 4EGI-1 + Palbociclib (first compound 15.81 µM) it was 0.343; in the test with 4EGI-1 + Palbociclib (first compound 50 µM), 0.339; with 4EGI-1 + Tozasertib (first compound 0.5 µM) it was 1. In addition, the relative viability with 4EGI-1 + Tozasertib (first compound 5 µM) is 0.861; with 4EGI-1 + Tozasertib (first compound 15.81 µM), 0.822; with 4EGI-1 + Tozasertib (first compound 50 µM) it was 0.741; with 4EGI-1 + Alpelisib (first compound 0.5 µM), 0.779; with 4EGI-1 + Alpelisib (first compound 1.581 µM), 0.716; in the test with 4EGI-1 + Alpelisib (first compound 5 µM), 0.749. For the same cell line, the relative viability was 0.67 with 4EGI-1 + Alpelisib (first compound 15.81 µM); 0.739 with 4EGI-1 + Alpelisib (first compound 50 µM); 0.553 with 4EGI-1 + Phenformin (first compound 0.5 µM); 0.569 with 4EGI-1 + Phenformin (first compound 5 µM); 0.488 with 4EGI-1 + Phenformin (first compound 15.81 µM); 0.463 with 4EGI-1 + Phenformin (first compound 50 µM).
With NCI-H2087, the relative viability is 0.281 with 4EGI-1 + Palbociclib (first compound 0.5 µM); 0.243 in the test with 4EGI-1 + Palbociclib (first compound 1.581 µM); 0.244 with 4EGI-1 + Palbociclib (first compound 5 µM); 0.163 with 4EGI-1 + Palbociclib (first compound 15.81 µM); 0.16 with 4EGI-1 + Palbociclib (first compound 50 µM); 0.272 with 4EGI-1 + Tozasertib (first compound 0.5 µM). The relative viability with 4EGI-1 + Tozasertib (first compound 1.581 µM) was 0.261; in the test with 4EGI-1 + Tozasertib (first compound 5 µM), 0.227; with 4EGI-1 + Tozasertib (first compound 15.81 µM), 0.164; with 4EGI-1 + Tozasertib (first compound 50 µM), 0.167; with 4EGI-1 + Alpelisib (first compound 0.5 µM) it was 1.17; in the test with 4EGI-1 + Alpelisib (first compound 1.581 µM), 1.09. Moreover, the relative viability with 4EGI-1 + Alpelisib (first compound 5 µM) stood at 0.985; with 4EGI-1 + Alpelisib (first compound 15.81 µM), 0.839; in the test with 4EGI-1 + Alpelisib (first compound 50 µM) it was 0.221; with 4EGI-1 + Phenformin (first compound 0.5 µM), 0.498; with 4EGI-1 + Phenformin (first compound 1.581 µM), 0.468; in the test with 4EGI-1 + Phenformin (first compound 5 µM) it was 0.435. In addition, the relative viability in the test with 4EGI-1 + Phenformin (first compound 15.81 µM) amounted to 0.394; with 4EGI-1 + Phenformin (first compound 50 µM) it was 0.193.
For LC-2-ad, the relative viability in the test with 4EGI-1 + Palbociclib (first compound 0.5 µM) is 0.49; in the test with 4EGI-1 + Palbociclib (first compound 1.581 µM), 0.514; with 4EGI-1 + Palbociclib (first compound 5 µM), 0.469; with 4EGI-1 + Palbociclib (first compound 15.81 µM), 0.417; in the test with 4EGI-1 + Palbociclib (first compound 50 µM), 0.305; with 4EGI-1 + Tozasertib (first compound 0.5 µM), 0.415. Also, the relative viability with 4EGI-1 + Tozasertib (first compound 5 µM) is 0.483; with 4EGI-1 + Tozasertib (first compound 15.81 µM) it was 0.347; with 4EGI-1 + Tozasertib (first compound 50 µM) it was 0.232; in the test with 4EGI-1 + Alpelisib (first compound 0.5 µM) it was 0.865; in the test with 4EGI-1 + Alpelisib (first compound 1.581 µM), 0.758; in the test with 4EGI-1 + Alpelisib (first compound 5 µM) it was 0.858. For the same cell line, the relative viability came out at 0.822 with 4EGI-1 + Alpelisib (first compound 15.81 µM); 0.137 with 4EGI-1 + Alpelisib (first compound 50 µM); 0.601 with 4EGI-1 + Phenformin (first compound 0.5 µM); 0.649 with 4EGI-1 + Phenformin (first compound 5 µM); 0.342 with 4EGI-1 + Phenformin (first compound 15.81 µM); 0.265 with 4EGI-1 + Phenformin (first compound 50 µM).
